Read-outs that look alike come from different tables or passages of the source.
Tests used:
[1] = target: T1, human enzyme NAMPT (full length) (Homo sapiens, UniProt P43490); experiment: NMN fluorescence biochemical assay (stimulation of NMN synthesis by NAMPT); conditions: for EC50: concentration giving half-maximal activation, read-out: Enzymatic EC50; for Enzymatic Emax: fold change of maximal activation compared to DMSO
T1 construct: human enzyme NAMPT (full length)
Procedure, shortened: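 Full-length human NAMPT (100 nM) was preincubated 15 min at 37 °C with compound in 50 mM Tris-HCl pH 7.5, 10 mM MgCl2, 2 mM DTT, then reacted 1 h at 37 °C with 50 μM NAM, 100 μM PRPP, 4 mM ATP (stated solution concentrations). NMN was derivatised with acetophenone/KOH then formic acid and read at Ex/Em 382/445 nm; EC50 and Emax (fold over DMSO) reported.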

[2] = tested on: endogenous NAMPT in U2OS cells; experiment: Cellular NAD+ modulation assay (NAD/NADH-Glo, U2OS cells); assay type: cell-based; conditions: Homo sapiens; for maximal fold induction: read-out: Cellular Emax
Procedure, shortened: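 NAD/NADH-Glo luminescence quantified NAD+ after acid treatment (60 °C, 15 min) and neutralization of DTAB lysates. Beforehand, U2OS cells seeded 16 h earlier received compound concentration series for 24 h at 37 °C. Values given as half-maximal activation concentration (EC50) and maximal fold change versus DMSO (Emax).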

[3] = NMN fluorescence assay, purified human NAMPT 100 nM
[4] = 24 hours incubation, cellular NAD+
[5] = NMN synthesis by purified human NAMPT (100 nM)
[6] = 24 hours incubation with compound

T1 sequence (P43490 whole entry): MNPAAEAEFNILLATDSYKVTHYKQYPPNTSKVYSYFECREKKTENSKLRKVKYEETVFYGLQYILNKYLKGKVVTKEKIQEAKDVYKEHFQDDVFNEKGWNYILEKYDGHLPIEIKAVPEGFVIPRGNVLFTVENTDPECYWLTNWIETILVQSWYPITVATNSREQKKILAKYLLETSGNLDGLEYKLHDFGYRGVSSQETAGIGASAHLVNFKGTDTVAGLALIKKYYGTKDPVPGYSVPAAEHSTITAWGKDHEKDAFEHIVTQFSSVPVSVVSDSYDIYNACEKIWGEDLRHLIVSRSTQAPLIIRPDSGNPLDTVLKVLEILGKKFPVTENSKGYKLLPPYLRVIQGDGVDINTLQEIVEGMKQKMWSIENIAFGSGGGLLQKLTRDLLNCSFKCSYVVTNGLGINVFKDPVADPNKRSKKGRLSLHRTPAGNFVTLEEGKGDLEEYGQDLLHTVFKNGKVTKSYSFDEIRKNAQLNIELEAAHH

SMILES	EC50 [1, 3]	Enzymatic Emax [1]	EC50 [2, 4]	EC50 [1, 5]	EC50 [2, 6]	maximal fold induction [2, 4]	maximal fold induction [2, 6]
COc1ccc(CN2C(=O)c3ccccc3C2Cc2c(C)ccnc2C#N)cc1 (stereo not shown) [Compound 567, 3-((2-(4-methoxybenzyl)-3-oxoisoindolin-1-yl)methyl)-4-methylpicolinonitrile]	< 500 nM	B (3≥B>2)	< 500 nM			> 1.5	
N#Cc1nccc(Cl)c1CC1c2ccccc2C(=O)N1Cc1ccc2[nH]nnc2c1 (stereo not shown) [Compound 228, 3-((2-((1H-benzo[d][1,2,3]triazol-5-yl)methyl)-3-oxoisoindolin-1-yl)methyl)-4-chloropicolinonitrile]		B (3≥B>2)		< 500 nM	< 500 nM		> 1.5
N#Cc1ccccc1CC1c2ccccc2C(=O)N1Cc1ccc(O)c(F)c1 (stereo not shown) [Compound 195, 2-((2-(3-fluoro-4-hydroxybenzyl)-3-oxoisoindolin-1-yl)methyl)benzonitrile]		B (3≥B>2)		< 500 nM	< 500 nM		1.2 to 1.5
N#Cc1cccc(CC2c3ccccc3C(=O)N2Cc2ccc3[nH]c(=O)oc3c2)c1 (stereo not shown) [Compound 131, 3-((3-oxo-2-((2-oxo-2,3-dihydrobenzo[d]oxazol-6-yl)methyl)isoindolin-1-yl)methyl) benzonitrile]		A (A>3)		500 to 5000 nM	500 to 5000 nM		> 1.5
COc1ccc(CN2C(=O)c3ccc(C4CC4)cc3C2Cc2c(C)ncnc2C#N)cc1 (stereo not shown) [Compound 638, 5-((6-cyclopropyl-2-(4-methoxybenzyl)-3-oxoisoindolin-1-yl)methyl)-6-methylpyrimidine-4-carbonitrile]	500 to 5000 nM	A (A>3)	< 500 nM			1.2 to 1.5	
CC1c2cc(F)ccc2C(=O)N1Cc1ccc2[nH]c(=O)oc2c1 (stereo not shown) [Compound 275, 6-((5-fluoro-3-methyl-1-oxoisoindolin-2-yl)methyl)benzo[d]oxazol-2(3H)-one]		B (3≥B>2)		≥ 5000 nM	500 to 5000 nM		> 1.5
Cn1ncc(Cl)c1CC1c2ccccc2C(=O)N1CC#Cc1cn[nH]c1 (stereo not shown) [Compound 453, 2-(3-(1H-pyrazol-4-yl)prop-2-yn-1-yl)-3-((4-chloro-1-methyl-1H-pyrazol-5-yl)methyl)isoindolin-1-one]	< 500 nM	B (3≥B>2)	< 500 nM			> 1.5	
COc1nn(C)c(CC2c3ccccc3C(=O)N2Cc2ccc3[nH]nnc3c2)c1Cl (stereo not shown) [Compound 316, 2-((1H-benzo[d][1,2,3]triazol-5-yl)methyl)-3-((4-chloro-3-methoxy-1-methyl-1H-pyrazol-5-yl)methyl)isoindolin-1-one]		B (3≥B>2)		< 500 nM	< 500 nM		1.2 to 1.5
CC(C)(O)Cn1cc(Cl)c(CC2c3ccccc3C(=O)N2Cc2ccc3[nH]nnc3c2)n1 (stereo not shown) [Compound 411, 2-((1H-benzo[d][1,2,3]triazol-5-yl)methyl)-3-((4-chloro-1-(2-hydroxy-2-methylpropyl)-1H-pyrazol-3-yl)methyl)isoindolin-1-one]	< 500 nM	B (3≥B>2)	< 500 nM			> 1.5	
O=C1c2ccccc2C(Cc2nn(C3COC3)cc2Cl)N1Cc1ccc2[nH]nnc2c1 (stereo not shown) [Compound 318, 2-((1H-benzo[d][1,2,3]triazol-5-yl)methyl)-3-((4-chloro-1-(oxetan-3-yl)-1H-pyrazol-3-yl)methyl)isoindolin-1-one]		A (A>3)		< 500 nM	< 500 nM		> 1.5
Cn1ncc(Cl)c1CC1c2cc(N3CCOCC3)ccc2C(=O)N1CC1CC2(CNC(=O)O2)C1 (stereo not shown) [Compound 463, 2-((3-((4-chloro-1-methyl-1H-pyrazol-5-yl)methyl)-5-morpholino-1-oxoisoindolin-2-yl)methyl)-5-oxa-7-azaspiro[3.4]octan-6-one]	500 to 5000 nM	B (3≥B>2)	< 500 nM			> 1.5	
Cc1ccccc1CC1c2ccccc2C(=O)N1Cc1ccc2[nH]c(=O)oc2c1 (stereo not shown) [Compound 124, 6-((1-(2-methylbenzyl)-3-oxoisoindolin-2-yl)methyl)benzo[d]oxazol-2(3H)-one]		A (A>3)		< 500 nM	500 to 5000 nM		> 1.5
Cn1ncc(Cl)c1CC1c2cc(C3CC3)ccc2C(=O)N1CC1CC2(CNC(=O)O2)C1 (stereo not shown) [Compound 311, 2-((3-((4-chloro-1-methyl-1H-pyrazol-5-yl)methyl)-5-cyclopropyl-1-oxoisoindolin-2-yl)methyl)-5-oxa-7-azaspiro[3.4]octan-6-one]		B (3≥B>2)		500 to 5000 nM	< 500 nM		> 1.5

The next lines start with results.

EC50 [1, 3]	Enzymatic Emax [1]	EC50 [2, 4]	EC50 [1, 5]	EC50 [2, 6]	SMILES	maximal fold induction [2, 4]	maximal fold induction [2, 6]
	A (A>3)		≥ 5000 nM	500 to 5000 nM	CC1c2cc(CN3CCCC3)ccc2C(=O)N1Cc1ccc2[nH]c(=O)oc2c1 (stereo not shown) [Compound 96, 6-((3-methyl-1-oxo-5-(pyrrolidin-1-ylmethyl)isoindolin-2-yl)methyl)benzo[d]oxazol-2(3H)-one]		> 1.5
500 to 5000 nM	A (A>3)	< 500 nM			COc1ccc2c(c1)C(=O)N(Cc1ccc3[nH]nnc3c1)C2Cc1c(Cl)cnn1C (stereo not shown) [Compound 414, 2-((1H-benzo[d][1,2,3]triazol-5-yl)methyl)-3-((4-chloro-1-methyl-1H-pyrazol-5-yl)methyl)-6-methoxyisoindolin-1-one]	> 1.5	
	A (A>3)		500 to 5000 nM	< 500 nM	CC(C)c1ccc2c(c1)C(=O)N(Cc1ccc(O)cc1)C2=O [Compound 26, 2-(4-hydroxybenzyl)-5-isopropylisoindoline-1,3-dione]		≤ 1.2
	A (A>3)		< 500 nM	< 500 nM	O=C1c2ccccc2C(Cc2nccc(F)c2Br)N1Cc1ccc2[nH]c(=O)oc2c1 (stereo not shown) [Compound 211, 6-((1-((3-bromo-4-fluoropyridin-2-yl)methyl)-3-oxoisoindolin-2-yl)methyl)benzo[d]oxazol-2(3H)-one]		> 1.5
< 500 nM	A (A>3)	< 500 nM			N#Cc1ccnc(C#N)c1CC1c2ccccc2C(=O)N1Cc1ccc2[nH]nnc2c1 (stereo not shown) [Compound 353, 3-((2-((1H-benzo[d][1,2,3]triazol-5-yl)methyl)-3-oxoisoindolin-1-yl)methyl)pyridine-2,4-dicarbonitrile]	> 1.5	
< 500 nM	B (3≥B>2)	< 500 nM			Cn1nc(C2CC2)c(Cl)c1CC1c2ccccc2C(=O)N1Cc1ccc2[nH]nnc2c1 (stereo not shown) [Compound 399, 2-((1H-benzo[d][1,2,3]triazol-5-yl)methyl)-3-((4-chloro-3-cyclopropyl-1-methyl-1H-pyrazol-5-yl)methyl)isoindolin-1-one]	> 1.5	
500 to 5000 nM	C (2≥C)	500 to 5000 nM			COc1ccc(CN2C(=O)c3ccccc3C2Cc2c(Cl)cnn2C)cc1Cl (stereo not shown) [Compound 544, 3-((4-chloro-1-methyl-1H-pyrazol-5-yl)methyl)-2-(3-chloro-4-methoxybenzyl)isoindolin-1-one]	1.2 to 1.5	
	A (A>3)		< 500 nM	500 to 5000 nM	Cc1cccnc1CC1c2ccccc2C(=O)N1Cc1ccc2[nH]c(=O)oc2c1 (stereo not shown) [Compound 176, 6-((1-((3-methylpyridin-2-yl)methyl)-3-oxoisoindolin-2-yl)methyl)benzo[d]oxazol-2(3H)-one]		> 1.5
< 500 nM	B (3≥B>2)	5000 to 50000 nM			O=C1c2ccccc2C(Cc2nn(C3CC4(COC4)C3)cc2Cl)N1Cc1ccc2[nH]nnc2c1 (stereo not shown) [Compound 412, 2-((1H-benzo[d][1,2,3]triazol-5-yl)methyl)-3-((4-chloro-1-(2-oxaspiro[3.3]heptan-6-yl)-1H-pyrazol-3-yl)methyl)isoindolin-1-one]	1.2 to 1.5	
	C (2≥C)		≥ 5000 nM	5000 to 50000 nM	COC(=O)Nc1ccc(CN2Cc3ccccc3C2=O)cc1 [Compound 294, methyl (4-((1-oxoisoindolin-2-yl)methyl)phenyl)carbamate]		> 1.5
	A (A>3)		< 500 nM	< 500 nM	N#Cc1nccc(Cl)c1CC1c2ccccc2C(=O)N1Cc1ccc2[nH]c(=O)oc2c1 (stereo not shown) [Compound 212, 4-chloro-3-((3-oxo-2-((2-oxo-2,3-dihydrobenzo[d]oxazol-6-yl)methyl)isoindolin-1-yl)methyl)picolinonitrile]		> 1.5
< 500 nM	B (3≥B>2)	< 500 nM			Cn1ncc(Cl)c1CC1c2ccccc2C(=O)N1C/C=C/c1nn[nH]c1F (stereo not shown) [Compound 516, (E)-3-((4-chloro-1-methyl-1H-pyrazol-5-yl)methyl)-2-(3-(5-fluoro-1H-1,2,3-triazol-4-yl)allyl)isoindolin-1-one]	> 1.5	
